Test results: ChEMBL document CHEMBL1926578, “On a possible neutral charge state for the catalytic dyad in β-secretase when bound to hydroxyethylene transition state analogue inhibitors” (J Med Chem, 2011)
*1 amine or outer side, *2 acyl side, *3 side chain or, on linkers, in order; H or OH if unused. Where a SMILES comes first, the peptide text is derived from it. [ ]: non-standard residue; d: D form. X1 = CC(C)C[C@H](N[*:1])[C@@H](O)C[C@H](C(=O)[*:2])C(C)C

Molecular target: Beta-secretase 1 (Homo sapiens, UniProt P56817)
Sequence (P56817 whole entry): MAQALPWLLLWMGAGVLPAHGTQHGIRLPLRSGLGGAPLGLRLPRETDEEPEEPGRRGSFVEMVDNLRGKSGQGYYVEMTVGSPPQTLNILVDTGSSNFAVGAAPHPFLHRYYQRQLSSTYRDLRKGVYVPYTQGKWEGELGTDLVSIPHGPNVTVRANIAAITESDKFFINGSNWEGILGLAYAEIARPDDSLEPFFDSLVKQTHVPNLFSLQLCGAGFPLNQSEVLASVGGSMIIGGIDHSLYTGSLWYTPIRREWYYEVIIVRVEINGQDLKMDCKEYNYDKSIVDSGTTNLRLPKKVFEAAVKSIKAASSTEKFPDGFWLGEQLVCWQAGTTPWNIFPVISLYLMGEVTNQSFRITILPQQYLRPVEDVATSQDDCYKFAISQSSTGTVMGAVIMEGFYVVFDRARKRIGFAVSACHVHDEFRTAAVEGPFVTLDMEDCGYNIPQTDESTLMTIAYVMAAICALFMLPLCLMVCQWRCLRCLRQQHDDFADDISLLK

**Q.** How did the IC50 turn out when CCC(C)[C@H](NC(=O)[C@@H](N)CCC(N)=O)C(=O)N[C@@H](CC(=O)O)C(=O)N[C@@H](CC(C)C)[C@@H](O)C[C@@H](C)C(=O)N[C@@H](C)C(=O)N[C@@H](CCC(=O)O)C(=O)N[C@@H](Cc1ccccc1)C(=O)O (single isomer, unassigned) was run?
**A.** Its IC50 is 45.5 nM.

**Q.** CC(C)C[C@H](NC(=O)[C@H](CC(N)=O)NC(=O)[C@@H](NC(=O)[C@@H](N)CCC(=O)O)C(C)C)[C@@H](O)C[C@H](C(=O)N[C@@H](C)C(=O)N[C@@H](CCC(=O)O)C(=O)N[C@@H](Cc1ccccc1)C(=O)O)C(C)C (H-EVN[X1]AEF-OH) was tested. Which IC50 did it give?
**A.** The IC50 was 165 nM.
